The subject of one data set is AD-like symptoms. As to conditions: mice, two independent studies [24, 25]; cited from earlier work.
Data set [1] concerns N/TERT-1 keratinocytes. As to the kind of experiment: Cornified envelope assay. It counts as cell-based, human. The settings on record: N/TERT-1 treated with HDAC inhibitor vs control, FIG. 6C, 6D. The procedure:
N/TERT-1 keratinocytes were grown in DF-K media until confluent, and then shifted to high Ca^2+ conditions (1.5 mM) for a further 7 days in fresh DF-K media to induce terminal differentiation and cornified envelope formation, and the number of cornified envelopes (CEs) assessed following the method of Rice et al. In brief, cells were trypsinized and resuspended at 2.0×10^6 cells/ml in dissociation buffer containing 0.1 M Tris-HCl buffer pH 8.0, 2% SDS and 20 mM dithiothreitol. CEs were harvested by boiling the samples for 15 minutes at 100° C. Detergent- and reducing agent-resistant CEs were collected as an insoluble pellet by centrifugation at 4000×g for 10 minutes. CEs were counted with a hemocytometer, and CE formation was expressed as a percentage of input cell number.

Data set [2] deals with N/TERT-1 keratinocytes. Description: Expression of MEST and keratinocyte differentiation markers (IVL, SPRR2F, TGM1) in N/TERT-1 cells treated with HDAC inhibitors. It counts as cell-based, human. The procedure:
Cells were fixed and permeabilized with ice-cold acetone/methanol for 10 minutes. After washing in phosphate buffered saline (PBS), the cells were incubated with 10% goat serum for 30 minutes. The cells were subsequently incubated with primary antibodies for 2 hours at room temperature or overnight at 4° C. After washing three times with PBS with 0.1% Tween 20, the cells were incubated in dark with Alexa Fluor secondary antibodies (Invitrogen) for an hour. Nuclei were stained using DAPI. After washing with PBS, the cells were mounted onto slides with FluorSave reagent (EMD Millipore). Images were taken with an FV1000 inverted confocal microscope (Olympus) using Olympus FluoView.
(§1) Total RNA was isolated using miRCURY™ RNA isolation kit (Exiqon). For miRNA quantification, cDNA was synthesized using Taqman® miRNA reverse transcription kit (Life Technologies) and the expression level of miRNAs was quantified by TaqMan Gene Expression Assays (Applied Biosystems) in 7900 fast RT-PCR system (Applied Biosystems) using Taqman miRNA-specific primers. For mRNA expression, cDNA was synthesized using SuperScript® III Reverse Transcriptase (Life Technologies) according to manufacturer's protocol. The expression levels of mRNAs were measured using SYBR green PCR Master Mix (Applied Biosystems). U6 and RPLP0 were used as endogenous normalization controls for miRNA and protein-coding genes, respectively. The expression of a gene/miRNA was defined from threshold cycle (Ct), and relative transcript abundance was calculated using ddCT method. All reactions were run in triplicates. The primers were designed using the Primer3 software and the NCBI design primer tools. The primers were checked for their GC content and any secondary structure formation using OligoCalc.
A panel of 42 HDAC inhibitors (HDACi) covering the majority of type I, II and pan HDACis were purchased from Selleckchem. N/TERT-1 grown to confluence were treated with HDACi at a final concentration of 1 μM from a 100 μM stock. Control wells were treated with DMSO at a final concentration of 1%. […]

A further data set deals with human skin biopsies. Description: Ex-vivo human skin organ culture model, topical treatment. The procedure: (§2) Paraffin wax-embedded skin tissue sections (5 μm) were dewaxed, rehydrated and boiled in pre-treatment solution (Panomics) for 5 minutes and subsequently treated with protease (Panomics) for 30 minutes at 37° C. Locked nucleic acid (LNA) probes were then added to the sections and incubated at 51° C. for 4 hours. The LNA probes used are specific to miR-335 and scrambled (non-targeting) sequences and are 5′ and 3′ digoxigenin- (DIG-) labelled. After washing the sections sequentially with 5× saline-sodium citrate (SSC), 1×SSC and 0.3×SSC buffer, they were blocked with 10% goat serum and incubated with anti-DIG alkaline phosphatase (Roche) overnight at 4° C. Fast Red Substrate (Panomics) were used to detect miRNA-bound LNA probes. Tissue sections were counterstained with 4′,6-diamidino-2-phenylindole dihydrochloride (DAPI) (Sigma-Aldrich) and mounted with FluorSave™ reagent (EMD Millipore). The slides were examined with an FV1000 inverted confocal microscope (Olympus) and images were acquired using Olympus FluoView with TRITC and DAPI filters.
Paraffin wax-embedded skin tissue sections (5 μm) were dewaxed and rehydrated through decreasing concentration of ethanol. Endogenous peroxidases in tissue sections were quenched by 3% H2O2 in absolute methanol for 30 minutes. The sections were then boiled in antigen retrieval solution (pH 6, DAKO). Sections were then blocked in 10% goat serum for 30 minutes and incubated with primary antibodies overnight at 4° C. After incubation with primary antibodies, tissues were incubated with anti-rabbit or -mouse Envision-labelled polymer reagents (DAKO) for 1 hour at room temperature. The staining was visualized by 3,3′-diaminodbenzidine (DAB) substrate chromogen kit (DAKO). Slides were counterstained with haematoxylin and examined with a Zeiss AxioImager Z1 upright light microscope after mounting with CytosealTM60 mounting medium (Richard Allan Scientific). Images were acquired using Zeiss Zen software.
as §1, with “U6 and RPLP0 were used as endogenous normalization controls for miRNA and protein-coding genes, respectively.” left out, “All reactions were run in triplicates. The primers were designed using the Primer3 software and the NCBI design primer tools. The primers were checked for their GC content and any secondary structure formation using OligoCalc.” left out

For the next data set, the system named is miR-335. As to the kind of experiment: miR-335 expression in N/TERT-1 cells treated with HDAC inhibitors (qRT-PCR, in situ hybridization). It is filed as cell-based, human. The procedure:
as §2, with “Tissue sections were counterstained with 4′,6-diamidino-2-phenylindole dihydrochloride (DAPI) (Sigma-Aldrich) and mounted with FluorSave™ reagent (EMD Millipore). The slides were examined with an FV1000 inverted confocal microscope (Olympus) and images were acquired using Olympus FluoView with TRITC and DAPI filters.” left out
Total RNA was isolated using miRCURY™ RNA isolation kit (Exiqon). For miRNA quantification, cDNA was synthesized using Taqman® miRNA reverse transcription kit (Life Technologies) and the expression level of miRNAs was quantified by TaqMan Gene Expression Assays (Applied Biosystems) in 7900 fast RT-PCR system (Applied Biosystems) using Taqman miRNA-specific primers. […] The expression levels of mRNAs were measured using SYBR green PCR Master Mix (Applied Biosystems). […] The expression of a gene/miRNA was defined from threshold cycle (Ct), and relative transcript abundance was calculated using ddCT method. […]

A further data set has as its system N/TERT-1 cells. Description: HDAC inhibitor screening: toxicity, growth arrest and differentiation. It is filed as cell-based, human. As to conditions: HDACi 1 μM, 48 hrs. The procedure: A panel of 42 HDAC inhibitors (HDACi) covering the majority of type I, II and pan HDACis were purchased from Selleckchem. N/TERT-1 grown to confluence were treated with HDACi at a final concentration of 1 μM from a 100 μM stock. Control wells were treated with DMSO at a final concentration of 1%. After 48 hrs of treatment, cells were either processed for total RNA isolation or fixed and stained for human involucrin by immunocytochemistry.

For data set [3], the system named is promoter region of miR-335 and MEST. As to the kind of experiment: Chromatin immunoprecipitation (ChIP)-qPCR at the promoter region of miR-335 and MEST. It is filed as cell-based, human. As for the experimental part:
Cells were crosslinked with 1.5% formaldehyde for 10 minutes at 37° C. The reaction was stopped by adding glycine to the final concentration of 125 mM for 5 minutes at 37° C. Fixed cells were washed twice with ice-cold PBS, scraped and centrifuged. The pellets were then incubated with Buffer A (10 mM HEPES Ph7.9, 10 mM KCl, 0.1 mM EGTA, 1 mM DTT and 0.5 mM PMSF) supplemented with 1×protease inhibitor cocktail (Roche) and 10% glycerol on ice for 30 min, followed by 0.5% NP-40 for 5 minutes to lyse cytoplasmic membrane. The cells were then centrifuged at 1500×g for 5 minutes to pellet down nuclei. Nuclear pellet was then lysed in ChIP buffer (50 mM Tris pH 7.4, 150 mM NaCl, 5 mM EDTA, 0.5% NP-40, 1% Triton X-100, 0.05% SDS, 1×protease inhibitor cocktail). Nuclear chromatin was sheared by sonication for 15 min (30 sec on and 30 sec off) in Bioruptor® water bath sonicator. The sonicated samples were centrifuged, and the supernatant containing the sheared chromatin was harvested. For each ChIP reaction, 250 μl of chromatin extract was incubated with appropriate antibodies at 4° C. overnight on a rotary wheel. 50 μl of Protein A sepharose resin (precoated with 0.5% BSA and 0.2 mg/mL tRNA) was then added to the immunoprecipitated samples and incubated for 2 hours. […] Fold enrichment of the genes was calculated using ddCt method with input Ct values as normalization control.

With `CC(/C=C/C(=O)NO)=C\[C@@H](C)C(=O)c1ccc(N(C)C)cc1` [TSA, trichostatin A], the “development of AD-like symptoms” value in the data set on AD-like symptoms is given as “suppress the development of AD-like symptoms”.

As for `O=C(/C=C/c1cccc(S(=O)(=O)Nc2ccccc2)c1)NO` [belinostat, (E)-N-hydroxy-3-(3-(N-phenylsulfamoyl)phenyl)acrylamide], the “number of cornified envelopes (CEs)” value in the data set with N/TERT-1 keratinocytes [1] is “increased number of CEs”. For the same compound, the “expression of IVL by immunocytochemistry” value in the data set on N/TERT-1 keratinocytes [2] (N/TERT-1 cells vs control cells, FIG. 6B lower panel) is reported as “significant expression of IVL”. Also, in the data set on human skin biopsies (human skin biopsies vs mock treated skin, FIG. 6F), the “expression of miR-335 in epidermal layers by in situ hybridization” value is reported as “higher expression of miR-335”. In addition, the “levels of IVL by immunohistochemistry” value in the data set on human skin biopsies (human skin biopsies, FIG. 6G) is reported as “significant increase in the levels of IVL”. Moreover, in the data set with human skin biopsies (human skin biopsies, FIG. 11), the “filaggrin (FLG) protein by immunohistochemistry” value is on record as “induced significant levels of filaggrin”. The “expression of miR-335 by quantitative RT-PCR” value with human skin biopsies (human skin biopsies, topical in acetone, 1 mM, daily for six days, FIG. 6E) is given as “significant expression of miR-335”. In the data set on miR-335 (N/TERT-1 cells, FIG. 6B upper panel), the “expression of miR-335 by in situ hybridization” value is reported as “Induced expression of miR-335”. For the same compound, in the data set with N/TERT-1 cells, the toxicity result was “low toxicity”.

Take `CCCC(=O)[O-].[Na+]` [sodium butyrate]: in the data set on N/TERT-1 keratinocytes [2] (N/TERT-1, qRT-PCR, FIG. 5C), the “relative expression of MEST” value is recorded as “significantly increased MEST expression”. Also, the “relative transcript abundance of differentiation markers IVL, SPRR2F and TGM1” value in the data set with N/TERT-1 keratinocytes [2] (N/TERT-1, qRT-PCR, FIG. 5F) is “significant upregulation”. Moreover, the “enrichment of H3K4ac at the upstream region of MEST and miR-335” value in data set [3] (N/TERT-1, ChIP, FIG. 5D) is reported as “significant increase in the enrichment of H3K4ac”. Moreover, in data set [3] (keratinocytes, ChIP), the “HDAC2 enrichment in the promoter region of miR-335” value is recorded as “reduced”. Further, the “relative expression of miR-335” value in the data set on miR-335 (N/TERT-1 keratinocytes, qRT-PCR, FIG. 5B) was “significant miR-335 upregulation”.

These data come from patent publication US20230117361A1, “COMPOSITION COMPRISING MIR-335” (AGENCY FOR SCIENCE, TECHNOLOGY AND RESEARCH, priority 2019, published 2023).
